Tested on: wheat septoria tritici blotch fungus (Mycosphaerella graminicola)
Experiment: Control test against wheat septoria tritici blotch fungus, titer plate growth (Test Example 1)
Assay type: cell-based
Settings: 150 ppm in DMSO, 1 μl in 150 μl medium, 96-well plate, 18° C., 4 days

## CCOC(=O)C(=O)c1ccccc1COc1ccc(-c2cc(Cl)n(C)n2)cc1C [present compound 1]
  control activity (Equation 1, degree of growth by absorbance at 550 nm): ≥ 70%

— US9907307B2, “Aromatic compound and uses thereof” (SUMITOMO CHEMICAL COMPANY, LIMITED, priority 2014, dated 2018)
